Legend:
[1] = biological target: T1, human cloned 5-HT2B receptors (Homo sapiens, UniProt P41595); experiment: Human cloned 5-HT2B cell-based functional assay (Fluo-4, block of 5-HT response); settings: CHO.K1 cells expressing cloned 5-HT2B receptor, inhibition of the 5-HT response
T1 construct: expressed in transfected cells; host or cells: CHO-K1
Experimental: Human Cloned […] Cell-Based Functional Assay The following describes an in vitro functional assay using human cloned 5-HT2B receptors to determine the ability of compounds to block the receptor. CHO.K1 cells expressing cloned 5-HT2B receptor were maintained In Ultra-CHO medium containing 400 μg/ml of G418, 100 U/ml penicillin, 100 μg/ml streptomycin, 2.5 μg/ml fungizone, in 95/5% O2/CO2 at 37° C. Ultra-CHO medium additionally supplemented with 1% foetal bovine serum was used when seeding the cells and removed after 5 hours. Cells were plated in Costar 96 well white, clear-bottomed plate at a density of 50,000 cells per well and incubated for at least 24 hours in 95/5% O2/CO2 at 37° C. before running the assay. Media was removed from the wells and 200 μl of 4 μM Fluo-4 AM added, this was incubated in a Wallace Victor 2V workstation at 37° C. for 30 minutes. The Fluo-4 AM was then removed from the wells, which were then washed twice with 200 μl of buffer (HBSS without calcium/magnesium/phenol red, 20 mM HEPES, 1 mM Ca^2+, 1 mM Mg^2+, 2.5 mM probenecid, pH to 7.4), 180 μl of buffer or test compound was added to the well and incubated for 30 minutes. The Victor 2V injectors were used to inject 20 μl of 5-HT after obtaining 10 0.1-second baseline readings at 535 nm, followed by 150 readings. All test compounds were aliquoted in 100% DMSO at 10 mM and diluted to 1 mM in 50% DMSO, subsequent dilutions were made using buffer. Buffer was also used to dilute the 5-HT. Data were analysed using Microsoft Excel and GraphPad Prism, with the latter used to produce sigmoidal dose-response curves for each compound. The compound concentration that inhibited the 5-HT response by 50% was taken (IC50−M), and the results are shown in Table 2, as pIC50, being the negative log (to the base 10) of the measured IC50 values.

[2] = biological target: T2, cloned human 5-HT2A receptor (Homo sapiens, UniProt P28223); experiment: Human 5-HT2A receptor binding assay ([3H]ketanserin); settings: membranes of CHO-K1 cells expressing cloned human 5-HT2A receptor, [3H]ketanserin 1 nM; read-out: 5-HT2A pKi (converted)
T2 construct: purchased Euroscreen; host or cells: CHO-K1
Experimental: (§1) Human 5-HT2A and 5-HT2C Receptor Binding Assays
(§2) The binding affinity of ligands for human 5-HT2A and 5-HT2C receptors was determined using the following assay.
Membrane preparations from CHO-K1 cells expressing the cloned human 5-HT2A receptor were obtained (Euroscreen). The membranes were thawed rapidly and diluted in assay buffer containing Tris-HCl (50 mM, pH 7.7). The membranes were resuspended by homogenisation, prior to adding 15 μg of membranes to assay wells containing [^3H] ketanserin (1 nM), assay buffer (50 mM Tris at pH 7.4) containing pargyline (10 μM), and test compounds (1×10^−10 to 1×10^−4M). Non specific binding was determined in the presence of 100 μM mianserin. After 15 minutes incubation at 37° C., the assay mixture was filtered through a combination of GF-C and GF-B filters, pre-soaked in 0.05% Brij, using a Brandel cell harvester, and were washed three times using ice cold Tris-HCl buffer (50 mM). Radioactivity retained on the filters was determined by liquid scintillation counting. For each test compound, the concentration that inhibited binding of [^3H]ketanserin by 50% was determined using curve fitting software (Prism). Kd values (concentration of ketanserin required to occupy 50% of the receptor binding sites at equlibrium)determined from saturation binding studies were then used to calculate inhibition dissociation constants (Ki) using the following equation: [formula]

[3] = biological target: T3, cloned human 5-HT2C receptor (Homo sapiens, UniProt P28335); experiment: Human 5-HT2C receptor binding assay ([3H]mesulergine); settings: membranes of CHO-K1 cells expressing cloned human 5-HT2C receptor, [3H]mesulergine 1 nM; read-out: 5-HT2C pKi (converted)
T3 construct: purchased Euroscreen; host or cells: CHO-K1
T3 sequence (P28335 33-458): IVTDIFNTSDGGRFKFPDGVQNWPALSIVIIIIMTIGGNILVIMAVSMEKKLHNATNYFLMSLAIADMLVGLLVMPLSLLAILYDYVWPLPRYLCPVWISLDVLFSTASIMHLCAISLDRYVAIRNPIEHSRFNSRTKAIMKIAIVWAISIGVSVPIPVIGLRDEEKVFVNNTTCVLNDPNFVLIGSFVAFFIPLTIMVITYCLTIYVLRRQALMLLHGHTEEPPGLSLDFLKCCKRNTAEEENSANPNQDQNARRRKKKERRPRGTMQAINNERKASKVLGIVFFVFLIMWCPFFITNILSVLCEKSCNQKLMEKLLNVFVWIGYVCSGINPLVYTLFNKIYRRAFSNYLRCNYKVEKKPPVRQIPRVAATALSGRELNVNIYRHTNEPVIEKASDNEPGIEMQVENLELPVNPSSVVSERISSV
Experimental: as §1, §2
Membrane preparations from CHO-K1 cells expressing the cloned human 5-HT2C receptor were obtained (Euroscreen). The membranes were thawed rapidly and diluted in assay buffer containing Tris-HCl (50 mM, pH 7.7), ascorbic acid (0.1%) and pargyline (10 μM). The membranes were resuspended by homogenisation, prior to adding 6 μg of membranes to assay wells containing [^3H] mesulergine (1 nM), assay buffer (50 mM Tris at pH 7.7 and 0.1% ascorbic acid) containing pargyline (10 μM), and test compounds (1×10^−10 to 1×10^−4M). Non specific binding was determined in the presence of 100 μM mianserin. After 30 minutes incubation at 37° C., the assay mixture was filtered through a combination of GF-C and GF-B filters, pre-soaked in 1% bovine serum albumin, using a Brandel cell harvester, and were washed three times using ice cold Tris-HCl buffer (50 mM). Radioactivity retained on the filters was determined by liquid scintillation counting. For each test compound, the concentration that inhibited binding of [^3H]mesulergine by 50% was determined using curve fitting software (Prism). Kd values (concentration of mesulergine required to occupy 50% of the receptor binding sites at equlibrium) determined from saturation binding studies were then used to calculate inhibition dissociation constants (Ki) using the following equation: [formula]

[4] = biological target: T1, human cloned 5-HT2B receptors; experiment: Human cloned 5-HT2B receptor binding assay ([3H]LSD); settings: membranes of CHO-K1 cells expressing cloned 5-HT2B receptor, [3H]LSD 1 nM; read-out: 5-HT2B pKi (converted)
Experimental: Human Cloned 5-HT2B Receptor Binding Assay
The binding affinity of the compounds for human cloned 5-HT2B receptors was determined using the following assay.
CHO-K1 cells expressing cloned 5-HT2B receptor were maintained in Ultra-CHO medium containing 400 μg/ml of G418, 100 U/ml penicillin, 100 μg/ml streptomycin, 2.5 μg/ml fungizone and 1% foetal bovine serum, in 95/5% O2/CO2 at 37° C. The cells were harvested using 0.25% trypsin and were centrifuged at 800 rpm for 8 minutes. The cells were homogenised in 50 mM HEPES buffer containing 1 mM disodium EDTA and 1 mM PMSF at pH 7.4, using a Dounce homogeniser (20 strokes). The homogenate was centrifuged at 2280 rpm (1000 g) and 4° C. for 10 minutes, after which the supernatant was removed by decanting. The pellet was re-homogenised as above, and the resulting supernatant removed and combined with that already obtained. The supernatant solution was then centrifuged at 18300 rpm (40000 g) for 10 minutes at 4° C. using a Sorvall centrifuge. The supernatant was removed, and the pellet was re-suspended in 50 mM buffer at pH 7.4 using a Ultra-turrax T25 Polytron, before centrifugation again at 40000 g as above. This wash procedure was repeated, after which the membrane preparation was stored at a concentration of 1 mg/ml at −80° C. until use.
The membranes were thawed rapidly and diluted in assay buffer containing Tris-HCl (50 mM, pH 7.4), ascorbic acid (0.1%) and calcium chloride (4 mM). The membranes were homogenised to resuspend them, prior to adding 10 or 15 μg of membranes to assay wells containing [^3H]LSD (1 nM), assay buffer (50 mM Tris, 4 mM calcium chloride and 0.1% ascorbic acid) containing pargyline (10 μM), and the test compounds (1×10^−10 to 1×10^−4 M). Non specific binding was determined in the presence of 100 μM 5-HT. After 30 minutes incubation at 37° C., the assay mixture was filtered through a combination of GF-C and GF-B filters, pre-soaked in 1% polyethyleneimine, using a Brandel cell harvester, and were washed three times using 50 mM Tris-HCl. Radioactivity retained on the filters was determined by liquid scintillation counting. For each test compound, the concentration that inhibited binding of [^3H)LSD by 50% was determined using curve fitting software (Prism). Kd values (concentration of LSD required to occupy 50% of the receptor binding sites at equilibrium) determined from saturation binding studies were then used to calculate inhibition dissociation constants (Ki) using the following equation: [formula]
This approach follows that set out in Kenakin, T. P. Pharmacologic analysis of drug-receptor interaction. Raven Press, New York, 2nd Edition, which is incorporated herein by reference.

T1 sequence (P41595 whole entry): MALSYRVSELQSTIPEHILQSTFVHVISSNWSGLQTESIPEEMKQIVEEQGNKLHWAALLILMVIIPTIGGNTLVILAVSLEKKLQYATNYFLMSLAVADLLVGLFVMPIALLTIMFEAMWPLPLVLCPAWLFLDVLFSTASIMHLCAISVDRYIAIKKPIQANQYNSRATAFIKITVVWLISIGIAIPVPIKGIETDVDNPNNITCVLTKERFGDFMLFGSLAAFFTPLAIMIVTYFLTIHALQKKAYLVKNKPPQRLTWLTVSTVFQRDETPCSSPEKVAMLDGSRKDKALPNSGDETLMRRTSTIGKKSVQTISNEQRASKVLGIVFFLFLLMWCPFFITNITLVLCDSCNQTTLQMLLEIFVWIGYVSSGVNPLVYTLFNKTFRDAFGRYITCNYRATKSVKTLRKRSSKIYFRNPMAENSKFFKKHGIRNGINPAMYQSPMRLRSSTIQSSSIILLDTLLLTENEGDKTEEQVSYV
T2 sequence (P28223 whole entry): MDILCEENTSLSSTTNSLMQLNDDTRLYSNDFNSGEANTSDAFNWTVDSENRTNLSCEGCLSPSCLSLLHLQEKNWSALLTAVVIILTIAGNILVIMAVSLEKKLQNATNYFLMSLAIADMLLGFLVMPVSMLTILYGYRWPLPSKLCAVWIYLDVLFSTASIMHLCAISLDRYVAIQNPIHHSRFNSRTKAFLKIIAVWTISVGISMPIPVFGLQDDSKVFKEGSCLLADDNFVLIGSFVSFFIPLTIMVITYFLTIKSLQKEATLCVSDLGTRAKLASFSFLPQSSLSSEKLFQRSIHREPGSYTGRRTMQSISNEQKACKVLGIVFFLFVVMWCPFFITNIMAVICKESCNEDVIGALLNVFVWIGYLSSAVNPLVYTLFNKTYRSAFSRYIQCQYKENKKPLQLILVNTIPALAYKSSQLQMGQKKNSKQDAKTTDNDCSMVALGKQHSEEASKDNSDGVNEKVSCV

Cc1sc(N)nc1-c1cccc2ccccc12 [Compound 1, 2-amino-5-methyl-4-(naphth-1-yl)thiazole]
IC50 [1]: < 1000 nM | Ki [2]: > 10000 nM | Ki [3]: > 1000 nM | Ki [4]: < 1000 nM

CC(C)c1sc(N)nc1-c1cccc2ccccc12 [Compound 2, 2-amino-5-isopropyl-4-(naphth-1-yl)thiazole]
IC50 [1]: < 100 nM | Ki [2]: > 1000 nM | Ki [3]: > 1000 nM | Ki [4]: < 100 nM

Nc1nc(-c2cccc3ccccc23)cs1 [Compound 3, 2-amino-4-(naphth-1-yl)thiazole]
IC50 [1]: < 1000 nM | Ki [2]: > 1000 nM | Ki [3]: > 1000 nM | Ki [4]: < 1000 nM

Nc1nc(-c2ccc3ccccc3c2)cs1 [Compound 4, 2-amino-4-(naphth-2-yl)thiazole]
IC50 [1]: < 10000 nM | Ki [2]: > 10000 nM | Ki [3]: > 10000 nM | Ki [4]: < 10000 nM
